The test system of one series is Ae. aegypti. On the set-up: method as in PMID 20540931. The settings on record: single oral dose of 150 μg/kg; cited from earlier work.
Another series has as its system Anopheles mosquitoes. The following applies: cited from earlier work.
Series [1] deals with Aedes aegypti mosquitoes. The series is described as follows: Drug effect on mosquito fertility (percentage of eggs hatched). The series is classed as in vivo. As to the method:
The mixtures were rotated at room temperature for 30 min to ensure a uniform drug distribution (Rotator Genie, Scientific Industries, Bohemia, USA). […] Twelve hours later, the tap water was also removed to starve the mosquitoes. […] The mosquitoes were then feeding from blood through the netting and the Parafilm membrane. […] The photoperiod of the climate chamber and the insectary were synchronised. […] The engorged mosquitoes were either directly frozen at -20°C or returned to the climate chamber for certain time periods to assess the PK. […] Blood feeding was done as described above. […] In contrast to the PK experiments, the mosquitoes had unlimited access to water because a moistened oviposition substrate was inserted into the paper cup. […] Any hatched larva was counted and transferred to a rearing tray with a plastic pipette. The fertility was calculated as the percentage of eggs hatched. […] R Foundation for Statistical Computing, http://www.R-project.org, Vienna, Austria). Normality was assessed using the Shapiro-Wilk test. For normally distributed data (mortality, fecundity), group differences were assessed with one-way ANOVA testing, and, where applicable, followed up with Tukey's test. Group differences in fertility (not normally distributed) were evaluated with Kruskal-Wallis one-way analysis of variance, and Wilcoxon rank sum testing as post-hoc.

In series [2] the test system is Aedes aegypti mosquitoes. The settings on record: IVM 0.1, KCZ 5, RIF 10, RTV 10, PBO 10 μg/ml in blood; for Mosquito survival (%): 50 mosquitoes.
The nature of series [3]: Mosquito dosing experiments: ivermectin recovered from single mosquitoes directly after membrane blood feeding (LC-MS/MS). The series is classed as in vivo, Aedes aegypti. The procedure: Drug stock solutions were prepared in DMSO and added to blank human blood at a ratio of 1:1000 so that the DMSO content was less than 0.2%. The mixtures were rotated at room temperature for 30 min to ensure a uniform drug distribution (Rotator Genie, Scientific Industries, Bohemia, USA). The sugar water within the mosquito cages was replaced by tap water 24 h prior to the PK experiments. Twelve hours later, the tap water was also removed to starve the mosquitoes. On the day of the PK experiment, 25–35 starved, female mosquitoes with an age of 6–7 days post-emergence were transferred with a mouth aspirator into 2 dl paper cups that were sealed with a piece of mosquito netting. […] A petri dish (35 mm x 10 mm, BD, Franklin Lakes, USA) was filled with 2.55 ml of warm blood, sealed with a piece of Parafilm (Parafilm M sealing film, Huberlab AG, Aesch, Switzerland) stretched over the rim and turned upside down on top of the paper cup. The mosquitoes were then feeding from blood through the netting and the Parafilm membrane. The feeding was conducted in a climate chamber (HPP110, Memmert GmbH + Co.KG, Schwabach, Germany) at 26° C, 70% humidity, and 50% light intensity. The photoperiod of the climate chamber and the insectary were synchronised. After 20 min of feeding, the cups were placed on ice to immobilise the mosquitoes and separate the fully engorged ones. […]
The first aim was to evaluate the variability of the blood uptake by the mosquitoes. […] The strength of the association was assessed using a linear regression model and its correlation coefficient R^2 using GraphPad prism software 9.0.0 (San Diego, USA). […]
Mosquito extracts were analysed using a modular ultra-high-pressure liquid chromatography (UPLC) system from Shimadzu (Kyoto, Japan) connected to an API 5500 QTRAP tandem mass spectrometer (AB Sciex, Massachusetts, USA). A previously developed and validated LC-MS/MS method for the quantification of ivermectin in human plasma and blood was used for the analyses. […]

Where [4] appears, read: 100 eggs laid 48-96 h post-treatment, IVM 0.1, KCZ 5, RIF 10, RTV 10, PBO 10 μg/ml in blood.

Results on one compound are retold here after publication PMC7968666, “The pharmacokinetics and drug-drug interactions of ivermectin in Aedes aegypti mosquitoes” (PLoS Pathogens, 2021).

Values joined by “and” are separate entries in the source; they are usually repeats but may differ in a detail not shown here. Equal values may be shown once. “Also recorded” adds a separate entry of the source. Read-outs that look alike come from different tables or passages of the source. Bounds are passed on as bounds.

Take `CCC(C)C1OC2(CCC1C)CC1CC(CC=C(C)C(OC3CC(OC)C(OC4CC(OC)C(O)C(C)O4)C(C)O3)C(C)C=CC=C3COC4C(O)C(C)=CC(C(=O)O1)C34O)O2` (stereo not drawn) [ivermectin]: in the series with Ae. aegypti, the “Host blood concentration relative to LD50 against Ae. aegypti” value is ≤ 10 % of the LD50. For the same compound, the “Lethal concentration for Anopheles mosquitoes” value in the series on Anopheles mosquitoes is recorded as “low nanomolar range”. Moreover, in the series with Aedes aegypti mosquitoes [1] (setting [4]), the “Mosquito fertility, Batch 1, hatching rate” value is 1%; the “Mosquito fertility, Batch 2, hatching rate” value was 0%; the “Mosquito fertility, Batch 3, hatching rate” value was 1%. The “Effect on fertility of mosquito eggs” value in the series with Aedes aegypti mosquitoes [1] (ivermectin 0.1 μg/ml in blood) was “sterilised almost all mosquito eggs”. Besides, the “Mosquito survival (%)” value in the series on Aedes aegypti mosquitoes [2] (0 days post feeding) was found to be 100%. In addition, the “Mosquito survival (%)” value in the series on Aedes aegypti mosquitoes [2] (1 day post feeding) came out at 100%. Further, the four-day mosquito mortality in the series with Aedes aegypti mosquitoes [2] (four days, 3 batches of 50) amounted to 17%. In addition, in series [3] (0.01–1 μg/ml ivermectin in blood), the “Saturation of uptake over the dose range” value is on record as “no saturation was observed; also recorded: without showing saturation”. The “Dosing precision (%CV) of ivermectin, adjusted for mosquito weight” value in series [3] (0.01–1 μg/ml ivermectin in blood, n = 30 mosquitoes per dose) is on record as “less than 13.4%”. In addition, the “Ivermectin concentration per mosquito weight” value in series [3] (ivermectin dose 0.01 µg/ml in blood, directly after feeding, single mosquitoes 1-30) is 0.007 ng/mg and 0.009 ng/mg and 0.008 ng/mg and 0.010 ng/mg and 0.011 ng/mg.
